Measurements as given in patent publication US20250109127A1, “METHODS OF USE OF PHENOXYPROPYLAMINE COMPOUNDS TO TREAT DEPRESSION” (Minerva Neurosciences, Inc., priority 2013, published 2025).
“And” between values parts separate entries of the source, which are not always exact repeats. Identical values can stand only once.

Test system: DOPAC release in the rat prefrontal cortex
Experiment: Microdialysis: DOPAC release in prefrontal cortex after I.P. administration
Assay type: in vivo
Conditions: Citalopram 10 mg/kg I.P.
Procedure: The aim of the study was to evaluate, using microdialysis, the effects of an intraperitoneal (I.P.) administration in rats of three different doses of SON-117 on dopamine and its metabolites, serotonin and its metabolite (5-HIAA), and norepinephrine levels in prefrontal cortex.
Thirty-two adult male Wistar rats were used for the whole study (4 groups of eight animals planned for the study, Table 1).
Surgery was performed on rats weighing about 300 g at the beginning of the experiments. Rats were anaesthetized with Ketamine (50 mg/kg) & Xylazine (15 mg/kg) by intramuscular administration. The animals were placed in a stereotaxic apparatus in the flat-skull position at a constant setting of −3.3 mm between ear bars and the incisor bar. The animals were treated with a local anesthesic (xylocaine 1%, Astra Zeneca) and an analgesic (Temgesic, from Schering Plough, 0.05 mg/kg, s.c.). A rostrocaudal midline incision was made with a lancet to expose the dorsal skull surface. The “stereotaxic zero” was defined by the Bregma in accordance with Paxinos and Watson's atlas (1986). A hole was drilled in the skull with a drill and the meninges were pierced with a sterile needle to implant a CMA12 guide cannula which later received the dialysis probe.
Coordinates used for implanting guide cannula in prefrontal cortex from Bregma were anteroposterior 3.7 mm, mediolateral 0.8 mm, and dorsoventral −2 mm (top of the probe was at −5 mm). The guide cannula was fixed to the skull with two stainless steel screws (1.88 mm outside diameter) anchored. An application of dental cement was added. A plastic collar allowed each animal to be tethered to a Swivel assembly of the CMA 120 awake animal system. Following surgery, rats were kept in individual cages and allowed to recover for a minimum of 3-5 days before the experimentation. The rats were handled and put in plastic bowl for 10 min at least every day to habituate the animals to their new environment for the dialysis. An I.P. administration with saline was also performed every day.
Dialysis probes (CMA12/3 mm, membrane, 20 kD cut-off, Carnegie Medicine, Stockholm, Sweden), were carefully washed before inserting into the guide cannula. The wash was performed with the artificial cerebrospinal fluid (aCSF) medium (NaCl 147 mM, KCl 2.7 mM, CaCl2 1.2 mM, MgCl2 0.85 mM) at room temperature. The dialysis system was then equilibrated at 20° C. at a perfusion rate of 1 μl/min with a Carnegie pump (CMA100). All catheters (FEP tubing, internal volume of 1.2 μl/10 cm, and tubing adaptors) used for microdialysis were treated in the same conditions.
The probes duly prepared were inserted into the guide cannula and the CMA120 Swivel assembly secured to the animal using a plastic collar. Flow through the dialysis probe with aCSF was maintained at a rate of 1 μl/min during the whole experimentation. The first four fractions (corresponding to 2 hours) were discarded to avoid the effects of parenchymal disturbance and to ensure that an approximate steady-state level was reached. Fractions were then collected over a period of 8.5 h during which time the animals remained quiet. The dialysates were automatically collected with an autosampler (microfraction collector CMA 140, Carnegie Medicin) and stored at −80° C. until analysis. […] Perfusion was then maintained for 7 hours with aCSF. The dialysates (30 μl) were collected into 300 μl vials, transferred into dry ice and then kept frozen (−80° C.) until analysis. Frozen samples were shipped to a partner for analysis. At the end of the microdialysis study, a PBS with colored ink was perfused through the probe in order to visualize the dialyzed area.
Catecholamine assay: Concentrations of dopamine, DOPAC, HVA, 5-HIAA, 5-HT, and norepinephrin were determined for each sample by HPLC coupled with electrochemical detection.

In the case of `CN(C)CCCC1(c2ccc(F)cc2)OCc2cc(C#N)ccc21` (centres unmarked) [Citalopram, citalopram, reference compound], the “DOPAC in dialysate, MEAN” value (T0-T30 min) is reported as 92.52 % of respective basal, the “DOPAC in dialysate, MEAN” value (T30-T1 h) is reported as 101.61 % of respective basal and the “DOPAC in dialysate, individual animals” value (T30-T1 h) is reported as 108.24 % of respective basal and 101.84 % of respective basal and 110.81 % of respective basal and 140.94 % of respective basal and 90.86 % of respective basal and 86.64 % of respective basal and 74.29 % of respective basal and 104.04 % of respective basal. For the same compound, the “DOPAC in dialysate, MEAN” value (T1 h 30-T2 h) was 103.07 % of respective basal, the “DOPAC in dialysate, individual animals” value (T1 h 30-T2 h) was 97.22 % of respective basal and 94.96 % of respective basal and 95.81 % of respective basal and 121.29 % of respective basal and 99.84 % of respective basal and 90.48 % of respective basal and 98.93 % of respective basal and 130.18 % of respective basal and the “DOPAC in dialysate, MEAN” value (T1 h-T1 h 30) was 102.71 % of respective basal. For the same compound, the “DOPAC in dialysate, individual animals” value (T1 h-T1 h 30) was 108.8 % of respective basal and 86.27 % of respective basal and 95.17 % of respective basal and 138.08 % of respective basal and 88.43 % of respective basal and 88.97 % of respective basal and 77.44 % of respective basal and 143.24 % of respective basal, the “DOPAC in dialysate, MEAN” value (T2 h 30-T3 h) was 86.26 % of respective basal and the “DOPAC in dialysate, individual animals” value (T2 h 30-T3 h) was 68.83 % of respective basal and 76.04 % of respective basal and 88.98 % of respective basal and 94.72 % of respective basal and 88.97 % of respective basal and 81.12 % of respective basal and 86.11 % of respective basal and 108.52 % of respective basal. For the same compound, the “DOPAC in dialysate, MEAN” value (T2 h-T2 h 30) was 91.70 % of respective basal, the “DOPAC in dialysate, individual animals” value (T2 h-T2 h 30) was 100.58 % of respective basal and 87.15 % of respective basal and 91.10 % of respective basal and 94.66 % of respective basal and 82.72 % of respective basal and 76.32 % of respective basal and 84.28 % of respective basal and 120.05 % of respective basal and the “DOPAC in dialysate, MEAN” value (T3 h 30-T4 h) was 92.94 % of respective basal. For the same compound, the “DOPAC in dialysate, individual animals” value (T3 h 30-T4 h) was 98.62 % of respective basal and 88.8 % of respective basal and 84.72 % of respective basal and 92.54 % of respective basal and 81.68 % of respective basal and 80.31 % of respective basal and 88.84 % of respective basal and 131.20 % of respective basal, the “DOPAC in dialysate, MEAN” value (T3 h-T3 h 30) was 89.35 % of respective basal and the “DOPAC in dialysate, individual animals” value (T3 h-T3 h 30) was 108.36 % of respective basal and 74.94 % of respective basal and 89.42 % of respective basal and 83.63 % of respective basal and 84.95 % of respective basal and 77.32 % of respective basal and 85.84 % of respective basal and 113.17 % of respective basal. The “DOPAC in dialysate, MEAN” value (T4 h 30-T5 h) was 97.96 % of respective basal, the “DOPAC in dialysate, individual animals” value (T4 h 30-T5 h) was 118.57 % of respective basal and 89.81 % of respective basal and 82.60 % of respective basal and 77.02 % of respective basal and 90.64 % of respective basal and 94.78 % of respective basal and 95.64 % of respective basal and 137.22 % of respective basal and the “DOPAC in dialysate, MEAN” value (T4 h-T4 h 30) was 94.89 % of respective basal. For the same compound, the “DOPAC in dialysate, individual animals” value (T4 h-T4 h 30) was 107.03 % of respective basal and 83.51 % of respective basal and 92.76 % of respective basal and 82.75 % of respective basal and 83.92 % of respective basal and 79.63 % of respective basal and 104.47 % of respective basal and 127.87 % of respective basal, the “DOPAC in dialysate, MEAN” value (T5 h 30-T6 h) was 101.76 % of respective basal and the “DOPAC in dialysate, individual animals” value (T5 h 30-T6 h) was 132.77 % of respective basal and 85.32 % of respective basal and 85.38 % of respective basal and 97.98 % of respective basal and 88.27 % of respective basal and 108.01 % of respective basal and 92.66 % of respective basal and 127.03 % of respective basal. The “DOPAC in dialysate, MEAN” value (T5 h-T5 h 30) was 93.03 % of respective basal, the “DOPAC in dialysate, individual animals” value (T5 h-T5 h 30) was 75.53 % of respective basal and 93.40 % of respective basal and 85.99 % of respective basal and 86.97 % of respective basal and 95.22 % of respective basal and 104.27 % of respective basal and 122.75 % of respective basal and the “DOPAC in dialysate, MEAN” value (T6 h 30-T7 h) was 100.53 % of respective basal. The “DOPAC in dialysate, individual animals” value (T6 h 30-T7 h) was 119.00 % of respective basal and 87.46 % of respective basal and 83.16 % of respective basal and 92.30 % of respective basal and 79.40 % of respective basal, the “DOPAC in dialysate, MEAN” value (T6 h-T6 h 30) was 96.87 % of respective basal and the “DOPAC in dialysate, individual animals” value (T6 h-T6 h 30) was 117.46 % of respective basal and 79.52 % of respective basal and 81.29 % of respective basal and 39.89 % of respective basal and 77.98 % of respective basal and 106.17 % of respective basal and 94.72 % of respective basal and 131.51 % of respective basal. The “DOPAC in dialysate, MEAN” value (T-30 min-T0 (pre-dose)) was 96.20 % of respective basal and the “DOPAC in dialysate, MEAN” value (T-1 h-T-30 min (pre-dose)) was 98.03 % of respective basal.
